Source: patent US20150037341A1, “Diagnostic and Therapeutic Method” (Plysackaridforskning i Uppsala AB, priority 2011, published 2015)
Entries after “also recorded” stand apart in the source; their conditions may differ.

Columns and labels:
[1] = Nitrocellulose-filter trapping of 3H-labeled heparin bound to TTR peptides; assay type: binding; settings: pH 5.0, 3H-labeled heparin 1500 cpm
Procedure: (§1) (A) TTR amino acid sequence where histidine “(+)” and other basic amino acids “+” are marked. (B) Equal mole of TTR-peptides or full-length protein (with or without acidic dissociation), were incubated with ^3H-labeled heparin (1500 cpm) at pH 5.0. The amount of ^3H-labeled heparin bound to the peptides was analyzed using a nitrocellulose-filter trapping method.
To characterize the TTR-heparin interaction, we incubated TTR and its peptide fragments with ^3H-heparin. The binding was analyzed by a nitrocellulose-filter trapping method (18). […] This heparin-binding peptide contains three basic amino acids, including a histidine that likely contributed to the pH dependency seen in the TTR-heparin/HS interaction. This selective binding propy was further verified by SPR analysis (FIG. 9).

[2] = molecular target: T1, dissociated TTR immobilized onto a Biacore sensor chip (Homo sapiens, UniProt P02766); test: Surface plasmon resonance (Biacore), heparin/HS over immobilized TTR; assay type: binding
T1 construct: made in house; host or cells: bacteria
Procedure: (A) Dissociated TTR was immobilized onto a Biacore sensor chip and heparin (10 μM) was allowed to interact with the immobilized TTR in neutral or in mildly acidic conditions. (B) HS II (10 μM) binding to TTR at different pH was monitored and the response for each sample is expressed as response units (RU). […] (C) TTR (50 μM) incubated with heparin or HS II for 7 days at pH 5.0 or pH 7.4 was analyzed by ThT fluorescence. Data represent triplicate experiments (means±SEM).
Dissociated TTR was immobilized onto a Biacore sensor chip. Heparin (A), HS II (B) or HS I (C) were injected in a concentration series (ranging from 0.001-70 μM) over the surface at pH 5.0. The response for each concentration was measured at the steady-state region of the curve. The apparent equilibrium dissociation constant (KD) was calculated by plotting the response at steady-state for each concentration versus heparin/HS concentration. The data were fitted to the equation: Response=(Rmax*C)/(KD+C), where C is the concentration of heparin/HS. Two analyte flow rates (20 and 30 μl/min) were tested to assess possible effects of mass transport limitations in the system. […] The presented values are average value of three independent experiments.
(A) Equal amount of dissociated or native protein was immobilized onto a Biacore sensor chip and HS II was allowed to interact with the immobilized TTR at pH 5.0. (B) The values of the HS II-TTR interaction signal were obtained by repeated experiments using three chips with different ligand densities (250-3000 RU). The signals were normalized to a ligand density of 1000 RU and average value is shown. Statistical analysis was done by t test.
Interaction of TTR with heparin/HS was evaluated using a Biosensor system (Biacore2000). TTR was dissociated in acidic buffer (pH 2.7) and then diluted into a 50 mM NaAc (pH 5.0) coupling buffer and immobilized onto a CM5 sensor chip to a level of 3000 RU using an amine-coupling kit (GE Healthcare, Uppsala, Sweden). For binding and kinetic analysis, heparin or HS was injected (concentrations indicated in figure legend) over the surface and equilibrated at different pH. The surface was regenerated after each sample with a 30 s wash step of 0.5 M NaCl. All obtained sensorgrams were double-reference subtracted in Biacore evaluation software 2.0, using the reference flow cell and buffer blank sample.

[3] = SPR analysis of TTR peptides binding to immobilized heparin; settings: pH 5.0, peptide conc. 25 μg/ml, flow rate 20 μl/min
Procedure: Heparin was immobilized onto a Biacore sensor chip (CM5) using the surface thiol coupling kit (GE Healthcare). Peptides derived from regions on the TTR sequence (FIG. 5A) containing a histidine residue (24-35, 51-61 and 84-94), were allowed to interact with the heparin surface at pH 5.0 (peptide conc. 25 μg/ml; flow rate 20 μl/min).

[4] = test system: TTR transgenic flies (engineered mutant form of human TTR); test: Transgenic Drosophila TTR-model, flies reared on supplemented medium; assay type: in vivo, Drosophila melanogaster; settings: medium supplemented 10 mg/ml, heads collected after 9-17 days
Procedure: (A) Eggs of TTR transgenic flies were cultured on regular medium (control) or medium supplemented with low molecular weight heparin (Klexane®) or heparin. Heads were collected 9-17 days posteclosion and lysed in saline. The extract was analyzed by ThT staining. Values represent the average of duplicate experiments. (B) The presence of heparin in the Drosophila head lysate was analyzed with dot-blot stained Alcian blue. Heparin (25 ng and 50 ng) was used as positive control. Twenty-five microliters of the lysate (same samples as used for ThT analysis) was applied to a nylon membrane (Hybond N+, GE Healthcare) and stained with Alcian blue (0.5% Alcian Blue dissolved in 25% isopropanol and 3% acetic acid).
FIG. 14 illustrates the detection of heparin-TTR co-localization in TTR transgenic flies (A-G) Confocal microscopy analysis of cryo-sections prepared from Drosophila heads. (A) Overview image of a Drosophila head stained with DAPI (blue), showing the brain (Br), optical lobes (OI) and retina (Re). […]
The transgenic Drosophila melanogaster strain (Dhet TTR-A) overexpressing a mutant TTR was generated as described (7). […] The fluorescence was measured as described above. Non-TTR-transgenic flies were used as control to subtract background fluorescence. […]

recombinant human WT TTR = molecular target: T2, recombinant human WT TTR (Homo sapiens, UniProt P02766); test: Thioflavin T (ThT) fluorescence assay of TTR fibrillization in vitro; assay type: biochemical
T2 construct: made in house; host or cells: bacteria
Procedure: (§2) (A, B) The TTR dissolved in phosphate buffer (50 μM, pH 2.7) was incubated alone or with different heparin or HS (12 μM) at 37° C. for 48 h. After incubation the samples were mixed with ThT and fluorescence was measured. Data shown represent triplicate experiments (means±SEM). (C) TTR (500 μM) incubated with heparin (0, 5 or 20 μM) under the same conditions were analyzed with native-PAGE as described in Methods. […] The fibrils migrated in the stacking gel is not shown. (D) Microscopic analysis of the TTR after incubation with heparin. The sample was spotted on a glass and stained with Congo red. Images were taken under fluorescent light (Original magnification: 20×; Scale bar: 5 μm) and polarized light (insert).
(§3) Recombinant wild-type TTR was expressed in bacteria and purified as described previously (Furuya et al. (1991) Biochemistry 30:2415-2421). The purified protein was dissolved in 20 mM phosphate buffer-citric acid (pH 2.7, 3.5, 4.5 or 7.4) to a final concentration of 50 μM for Thioflavin T fluorescence or 500 μM for native-PAGE. Heparin (3H-labeled or unlabeled) and HS were added to the TTR solution to the concentrations as indicated in the respective figure legend. The samples were incubated at 37° C. for the time period as specified.
After incubation, 5 μl of the sample was mixed with ThT in water to a final concentration of 20 μM ThT. The mixture was transferred to a flat bottom-black 96-well plate (Grainer) and the fluorescence was measured at excitation- and emission wavelength of 440 and 480 nm, respectively (Gain=55, FARcyte instruments). Samples aggregated at different pHs were adjusted to neutral pH after completed incubation prior to ThT staining. The experiments were run in duplicate or triplicate.

[5] = molecular target: T3, full-length TTR (native, dissociated or aggregated) (Homo sapiens, UniProt P02766); test: Nitrocellulose-filter trapping of 3H-labeled heparin bound to full-length TTR; assay type: binding
T3 construct: Equal mole of TTR-peptides or full-length protein (with or without acidic dissociation); made in house; host or cells: bacteria
Procedure: as §1
Recombinant wild type TTR (500 μM) was dissolved in phosphate buffer (pH 7.4 or 2.7) and incubated at 37° C. for the time period as indicated. (a) The incubated samples were analyzed for their degree of aggregation with native PAGE. (b) The samples were incubated with ^3H-labelled heparin for 30 min at room temperature. The amount of heparin bound to the samples with different aggregation degree was analyzed by a nitrocellulose-filter trapping method.

[6] = molecular target: T4, recombinant wild-type TTR (Homo sapiens, UniProt P02766); test: Congo red staining of TTR after incubation with heparin; assay type: biochemical; settings: fluorescence and polarized light microscopy
T4 construct: made in house; host or cells: bacteria
Procedure: as §2

[7] = molecular target: T4, recombinant wild-type TTR; test: Native-PAGE of TTR incubated with heparin (Coomassie, Alcian blue, 3H counting of gel sections); assay type: biochemical
Procedure: TTR dissolved in phosphate buffer (pH 2.7) was co-incubated with heparin (mixture of ^3H-labeled and non-labeled) at 37° C. for 48 h. (A) The TTR-heparin co-incubated sample and heparin alone were separated with native-PAGE and stained with Alcian blue. (B) An identical set of samples was separated on the native-PAGE as above, and each lane was cut into six sections (as illustrated in A). The gel slices were incubated for 2 hr in H2O to extract the heparin. The radioactivity was measured by scintillation counting.
TTR dissolved in phosphate buffer (pH 2.7) was incubated without heparin at 37° C. for 48 h. Heparin (mixture of ^3H-labeled and nonlabeled) was then added and the TTR-heparin sample was incubated for an additional hour at 37° C. The sample was thereafter separated by native-PAGE and the gel was cut into 6 sections as illustrated in FIG. 4A. Radioactivity in each section was measured by scintillation counting. Data represents triplicate experiments (mean±SEM).
as §3
After incubation, 10 μl of the samples was mixed with 2.5 μl of a 5× sample buffer (0.3 M Tris-HCl, pH 6.8, 0.05% bromophenol blue, 50% glycerol) and loaded onto a 10% polyacrylamide gel without SDS. […] For quantification of ^3H-labeled heparin, the corresponding lanes in the gel were cut into six sections including the stacking gel (see FIG. 4A) that were transferred to a scintillation vial in 3 ml of H2O. After 2 hr incubation, 2 ml of scintillation cocktail was added and the radioactivity was measured.

24-35 peptide containing the V30M mutation: TTR 24-35 peptide with the V30M mutation associated with familial amyloid neuropathy (PAINVAMHVFRK; UniProt P02766 44-55, looked up, variant V30M)
Binding of 3H-labeled heparin to the peptide [1]: substantially lower binding to heparin compared to the WT peptide

Cc1ccc2c(c1)sc(-c1ccc(N(C)C)cc1)[n+]2C.[Cl-] [Thioflavin T]
Binding to surface immobilized with dissociated TTR (SPR) ([2]; Thioflavin T 50 μM): no binding
Binding to surface immobilized with aggregated TTR (SPR) ([2]; Thioflavin T injection): significant binding

PAINVAVHVFRK [peptide of aa 24-35, Synthesized peptide of aa 24-35 of TTR]
Binding of 3H-labeled heparin to the peptide [1]: bound to heparin
Interaction of the peptide with the heparin surface (SPR) [3]: interacted with heparin

heparin
TTR amyloid-like fibril formation in fly head lysate (ThT fluorescence) [4]: generated ThT-positive amyloid-like fibrils; also recorded: promoted formation of TTR amyloid-like fibrils
ThT fluorescence (fibril content) (recombinant human WT TTR; TTR 50 μM, pH 2.7, 37° C., 48 h, in the presence of heparin): 8000 AU
Effect on TTR fibrillization/aggregation (ThT fluorescence) (recombinant human WT TTR; TTR 50 μM, pH 2.7, heparin or HS 12 μM, 37° C., 48 h): prompted TTR aggregation, forming substantial amounts of amyloid-like fibrils
Effect on TTR fibrillization (ThT fluorescence) (recombinant human WT TTR; pH 2.7 and 5.0): greatly promoted TTR fibrillization
Binding of 3H-labelled heparin to aggregated TTR ([5]; TTR 500 μM pre-incubated at pH 7.4 or 2.7, heparin 30 min at room temperature): binds to aggregated TTR
Binding of 3H-labeled heparin to dissociated versus native full-length TTR ([5]; pH 5.0): preferentially bound to dissociated TTR
Binding to dissociated TTR (SPR response) ([2]; pH 5.0 (mildly acidic), 10 μM): observed
Affinity of TTR for heparin relative to HS II ([2]; pH 5.0, apparent KD from steady state): 10 fold
Congo red staining of fibrils [6]: Congo red positive fibrils
Migration pattern of TTR aggregates on native-PAGE ([7]; TTR 500 μM, heparin 5 or 20 μM, pH 2.7, 37° C., 48 h): substantial macromolecular TTR aggregates migrating in the top of the gel
Interaction of 3H-labeled heparin with pre-aggregated TTR (gel sections) ([7]; TTR aggregated 48 h without heparin, then heparin for 1 h at 37° C.): no or very little heparin interacted with aggregated TTR
Recovery of 3H-labeled heparin in gel sections after co-incubation with TTR ([7]; pH 2.7, 37° C., 48 h co-incubation): substantially recovered in section 1
